Data reported in patent US6933318B1, “Topical organic ectoparasiticidal formulations” (Eli Lilly and Company, priority 1999, dated 2005).
Entries after “also recorded” stand apart in the source; their conditions may differ.

Experiment: Wetting test of solvent systems on tanned rabbit pelt
Assay type: physicochemical
Conditions: about 1 mL solvent without active ingredient, dropwise, pelt at about 45°
Description: To determine organic solvents that are useful spreading agents, solvent systems that are capable of solubilizing at least 1% spinosad by weight percent were screened for hair wetting by applying about 1 mL of the solvent system (solvents were screened without active ingredient), dropwise, to a tanned rabbit pelt that was at an angle of about 45°. […]

Compound	Ability to wet rabbit hair
CN1CCCC1=O [N-methyl pyrrolidone]	Did Not Wet
CCCCOC(=O)C(C)O (stereo not shown) [butyl lactate]	Wet Well
COC(C)COC(C)CO (stereo not shown) [dipropylene glycol methyl ether]	wet the hair very well; also recorded: Wet Well
CCCCCCCC/C=C\CCCCCCCC(=O)OCC [ethyl oleate]	Wet Well
CCCCCCO [hexanol]	Wet Well
CCCCCCCCCCCCCC(=O)OC(C)C [isopropyl myristate]	Wet Well
C=C(C)[C@H]1CC=C(C)CC1 [limonene]	Wet Well
CCCCCCCCCC(=O)OC [methyl caprate]	Wet Well
CCCCCCCCCCCC(=O)OC [methyl laurate]	Wet Well
CCCCCCCC/C=C\CCCCCCCC(=O)OC [methyl oleate]	Wet Well
CCCCCCCC(=O)O [octanoic acid]	Wet Well
CC(O)CO (stereo not shown) [propylene glycol]	Did Not Wet
CC(=O)OCC(COC(C)=O)OC(C)=O [triacetin]	Did Not Wet
